In patent publication US9458101B2 (priority 2009, dated 2016):

Assays:
[1] = system: M010B (Human glioma); assay: Cytotoxicity testing (MTS) on M010B; format: cell-based
Procedure: (§1) Cell lines used were A549 (Human lung carcinoma), HeLa (Human cervical carcinoma), MCF-7 (Human mammary gland adenocarcinoma), CEM (Human T-lymphoblastoid from ALL (Acute lymphoblastic leukemia)), M010B (Human glioma), M006X (Human glioma) and Jurkat (Human T-cell leukemia).
(§2) A series of dilutions were prepared and a wavelength scan of the diluted solution was used to determine the wavelength of maximum absorbance for each compound. Five standardized drug concentrations were scanned at this pre-determined wavelength to obtain an estimate of the compound's extinction coefficient.
(§3) A primary MTS assay was used to test the optimal number of cells for cytotoxicity assays. Cells were trypsinized, counted and introduced into seven lanes of a 96-well plate at different cell numbers (eight replicates per lane). Optimal cell numbers were determined after 72 and 96 hours of growth and were used in subsequent cytotoxicity assays. […] Cell viability was determined using the Cell Titer 96 AQueous One Solution Cell Proliferation Assay (Promega, U.S.A.).
(§4) Fits were performed using a dose-response model ideal for data showing an initial response plateau, a transition region, and a final response plateau.
(§5) [formula] […] Itop is the response obtained at very low/no drug concentration. The data and all parameters were normalized to Itop−Ibot, a measure of the maximum effect of the drug.

[2] = system: MCF-7 (Human mammary gland adenocarcinoma); assay: Cytotoxicity testing (MTS) on MCF-7; format: cell-based
Procedure: as §1, §2, §3, §4, §5

[3] = system: M006X (Human glioma); assay: Cytotoxicity testing (MTS) on M006X; format: cell-based
Procedure: as §1, §2, §3, §4, §5

[4] = system: A549, HeLa, MCF-7 and CEM cell lines; assay: Cytotoxicity, mean over A549, HeLa, MCF-7 and CEM cell lines; conditions: for IC50 [log10 M] (mean logIC50): mean over A549, HeLa, MCF-7 and CEM cell lines
Excerpt: as §1, §3, §5
Cytotoxicity screening was performed on a number of cell lines based on the cancer of origin and differing morphologies.

[5] = system: HeLa (Human cervical carcinoma); assay: Cytotoxicity testing (MTS) on HeLa; format: cell-based
Procedure: as §1, §2, §3, §4, §5

[6] = system: CEM (Human T-lymphoblastoid from ALL); assay: Cytotoxicity testing (MTS) on CEM; format: cell-based
Procedure: as §1, §2, §3, §4, §5

[7] = system: CEM cells; assay: Viability of 3-D CEM cell cultures in Hollow Fiber Bioreactor (HFB), trypan blue; format: cell-based, Human; conditions: for viability of cell cultures: samples analysed by HPLC; for number of viable cells: HFB, decreased from 10^9 cells/mL, 1000 nM, within 72 h; for viability of cells in HFB: after 3 days of treatment
Procedure: CEM cells (American Type Culture Collection, Manassas, Va.) were maintained in tissue culture flasks and cultured as monolayer in 20 mL of RPMI media containing 10% Fetal Bovine Serum (FBS). When the number of cells in the culture flask reached 5-6×10^6 cells/mL the culture was harvested and then inoculated into six Hollow Fiber Bioreactors (HFB, FiberCells System, Frederick, Md.) and were continuously cultured in 37° C. and 5% CO2. HFB consists of a single, hydrophylic and polysulfone fiber with 0.1 μm diameter pores. The media circulating within the HFB cartridge and polysulphone tubing, at flow rate of 14 mL/min, brings oxygen and nutrients to cells and removes CO2 and other waste. Collagen solution was used to create an extra cellular matrix between the cells and the fiber. The polysulphone fiber was coated with protein by flushing with 10 mL of coating solution containing 1 mg collagen per 1 mL Phosphate Buffered Saline (PBS). The pH was maintained in the extra-capillary space throughout the duration of experiments between 6.8 and 7.0. Due to the perfusion the HFB absorbed sufficient oxygen from the reservoir with fresh media to keep cells alive. The perfusion medium was changed weekly when the glucose level reached 2 g/L measured with a glucometer.
Viability was assessed using trypan blue (K. Takahashi, G. Loo, Biochem. Pharm. 67 (2004) 315-324). Briefly, CEM cells were harvested from HFB, seeded in 6 well microplates and exposed to 0.4% (w/v) trypan blue dye solution. Cell number was determined manually with a hemacytometer chamber (Hausser Scientific, Horsham, Pa.).
Approximately 4×10^4 CEM cells/ml were treated on culture plates and placed for the 72 h incubation with (2-16) and (28-38) derivatives. All compounds were used for in vitro experiments and then the derivatives were selected for HFB studies to treat 10^9 CEM cells/mL in the 3-D cultures. The cells were treated 4 weeks after the cells' inoculation in the HFB. After 72 h, the growth was inhibited over 50% for 20 nM and higher concentrations in cells treated with (6), (13), (28) and (35).
CEM cells, American Type Culture Collection (Manassas, Va.), were maintained in tissue culture flasks and cultured as monolayer in 20 ml of RPMI media containing 10% Fetal Bovine Serum (FBS) and divided from 5×10^5 cells/mL to 2.5×10^4 cells/mL two times per week. When the number of the cells in the culture flask reached 5-6×10^6 cells/ml the culture was harvested and then inoculated into six Hollow Fiber Bioreactors (HFB, FiberCells System Inc., Frederick, Md.) and then continuously cultured in 37° C. and 5% CO2. The HFB consists of a single, hydrophylic and polysulfone fiber with 0.1 μm diameter pores. The media circulate within the HFB cartridge and polysulphone tubing, at flow rate of 14 mL/min, bringing oxygen and nutrients to cells and removing CO2 and other waste. Collagen solution was used to create an extracellular matrix between cells and fiber. The polysulfone fiber was coated with protein by flushing with 10 mL of coating solution containing 1 mg collagen per 1 mL Phosphate Buffered Saline (PBS). In this manner, CEM cells growing originally in suspension build up a 3-D solid tumor. During 4 weeks of culturing, the media were replaced each week.
The number of cells was determined using Trypan blue (Sigma-Aldrich, Oakville, ON) exclusion method (K. Takahashi, G. Loo, Biochem. Pharmacol. 67 (2004) 315-324). Briefly, CEM cells were harvested from HFB, seeded in 6 well microplates and exposed to 0.4% (w/v) trypan blue dye solution. Cell number was determined manually with a hemacytometer chamber (Hausser Scientific, Horsham, Pa.).

[8] = system: A549 (Human lung carcinoma); assay: Cytotoxicity testing (MTS) on A549; format: cell-based
Procedure: as §1, §2, §3, §4, §5

[9] = system: CEM cells; assay: HPLC-UV profile of treated CEM cells; format: cell-based, Human; conditions: for expression of MHC (class I) receptor, HPLC peak intensity: eluted at 53 min; for apoptotic protein signal, HPLC peak intensity: eluted at 57 min
Procedure: Digested cell samples were fractionated with a Gold HPLC chromatograph system equipped with a Gold 166 Ultra Violet (UV) Detector and 32-Karat software (Beckman-Coulter, Mississauga, ON, Canada). For reversed-phase HPLC, a Vydac 218 TP54 Protein & Peptide C18 analytical column, 300 Å pore size, 0.46 cm×25 cm (Separation Group, Hesperia, Calif., U.S.A.) was used. The chromatograph was equipped with a Rheodyne injector (5 μL). UV detection was performed at 245 nm. Eluent A consisted of 5% acetonitrile (ACN) water solution and eluent B of 0.01% trifluoroacetic acid in 95% ACN water solution. A linear gradient from 5 to 70% ACN was applied over 60 min.
It was assumed that signals eluted at 30-35 min were unreacted derivatives with variable intensity of 0.1 V for (28) and (35) as well as 0.35 V for (13) and 0.9 V for (6). […] An additional signal eluted at 57 min occurred in samples treated with (35) and (28) (FIGS. 10D and 10E). The signals at 57 min differ at about 5 min in elution present one from cascade of apoptotic protein in treated cells. The peak intensity of 0.3 V (28) and 0.2 V (35) corresponded to viability of cells 38% (28) and 35% (35) and unreacted derivatives 0.1 (28), 0.1 (35), respectively. The undefined additional peaks with very low intensities, less then 0.05 V, are the metabolites of derivatives or unreacted compounds.

[10] = system: CEM cells; assay: 19F MRI signal intensity of treated 3-D CEM cultures in HFB (cell number with fluorine uptake); format: cell-based, Human; conditions: for mean CEM cell density in the region with lower densities / mean number of cells in the region with higher cell densities: MRI; for mean cell concentration corresponding to mean 19F SI: cells with fluorine derivative uptake
Procedure: All MRI experiments were performed using a 9.4 Tesla with 21 cm bore magnet (Magnex, U.K.) and TMX console (NRC-IBD, Canada). ^19F MR images were acquired using double (^19F and ^1H) tuned transmit/receive radio frequency (RF) volume coil operating at 376 MHz and 400 MHz corresponding to ^19F and ^1H Larmour frequency at 9.4 Tesla, respectively. ^1H MR images were collected in the same imaging session that ^19F MRI. Proton MR provided anatomical images of the culture. The MRI images monitored the localization of cells around the fiber in HFB as well as the volume of the cells. Moreover, ^19F MRI selectively visualizes only intracellular fluorine uptake with no background, therefore allows cell count. The cells before and after treatment with (6), (13), (28) and (35) were imaged with ^1H MRI, this allowed changes to be observed in the 3-D cell aggregation. The cells treated with 20 nM (28) and (35) were also imaged with ^19F MRI to measure fluorine content using ^19F NMR signal intensity (SI) in each HFB treated with (28) and (35). […] To obtain the calibration curves (for each derivative separately) the phantoms consisting of HFB tubes filled with 1 nM, 10 nM, 20 nM, 100 nM, 500 nM and 1000 nM of (28) or (35) and 10^3 cells, 10^4 cells, 10^5 cells, 10^6 cells, 10^7 cells, 10^8 cells and 10^9 cells were used. The linear regression was used to find the SI dependence on cell numbers. The cell numbers estimated from ^19F MR imaging were compared to the cell viability obtained from trypan blue assays. […] One 1 mm slice was acquired with a matrix size of 256×256 and a field of view of 3×3 cm for both ^19F and ^1H.

[11] = system: CEM cells; format: cell-based, Human

Compound	Fraction of cells that survive at the highest drug concentrations (Ibot) [1]	logIC50 [1] [log10 M]	Fraction of cells that survive at the highest drug concentrations (Ibot) [2]	logIC50 [2] [log10 M]	Fraction of cells that survive at the highest drug concentrations (Ibot) [3]	logIC50 [3] [log10 M]	IC50 [log10 M] (mean logIC50) [4]	Fraction of cells that survive at the highest drug concentrations (Ibot) [5]	logIC50 [5] [log10 M]	Fraction of cells that survive at the highest drug concentrations (Ibot) [6]	logIC50 [6] [log10 M]	viability of cell cultures [7]	Fraction of cells that survive at the highest drug concentrations (Ibot) [8]	logIC50 [8] [log10 M]	expression of MHC (class I) receptor, HPLC peak intensity [9] [V]	apoptotic protein signal, HPLC peak intensity [9] [V]	mean CEM cell density in the region with lower densities [10]	mean number of cells in the region with higher cell densities [10]	mean cell concentration corresponding to mean 19F SI [10]	number of viable cells [7]	also measured
CCOc1c(OC)c(OC)cc2c1-c1ccc(OC)c(=O)cc1[C@@H](NC(C)=O)CC2 [Compound 6, N-[(7S)-1-(ethoxy)-2,3,10-trimethoxy-9-oxo-5,6,7,9-tetrahydrobenzo[α]heptalen-7-yl]acetamide]	0.108 ± 0.013	−7.94 ± 0.04	0.605 ± 0.015	−7.42 ± 0.13	0.039 ± 0.011	−8.41 ± 0.08	−7.95 ± 0.09	0.089 ± 0.026	−7.89 ± 0.06	−0.062 ± 0.026	−8.64 ± 0.08	50%±4	0.249 ± 0.030	−7.83 ± 0.10	–	–	–	–	–	–	average IC50 values compared with colchicine ([4]; average values of Table 3): stronger than colchicine
COc1cc2c(c(-c3cccnc3)c1OC)-c1ccc(OC)c(=O)cc1[C@@H](NC(C)=O)CC2 [Compound 13, N-[(7S)-2,3,10-trimethoxy-9-oxo-1-((pyridin(3))yl)-5,6,7,9-tetrahydrobenzo[α]heptalen-7-yl]acetamide]	0.305 ± 0.053	−4.90 ± 0.09	0.364 ± 0.038	−5.19 ± 0.09	0.055 ± 0.046	−5.67 ± 0.12	−5.13 ± 0.17	0.059 ± 0.059	−5.33 ± 0.14	−0.026 ± 0.039	−5.50 ± 0.10	45%±2	0.218 ± 2.644	−4.51 ± 0.32	0.05	–	–	–	–	–	–
CCOc1c(OC)c(OC)cc2c1-c1ccc(OC)c(=O)cc1[C@@H](NC(=O)CNC(=O)C(F)(F)F)CC2 [Compound 28]	–	–	–	–	–	–	–	–	–	–	–	38%±4	–	–	–	0.3	2.4×10^8 cells/mL	3.5×10^8 cells/mL	6.03×10^8 cells/mL	3.45×10^8 cells/mL	viability of cells in HFB [7]: 35%
COc1cc2c(c(OCc3cccnc3)c1OC)-c1ccc(OC)c(=O)cc1C(NC(=O)CNC(=O)C(F)(F)F)CC2 (centres unmarked) [Compound 35]	–	–	–	–	–	–	–	–	–	–	–	35%±5	–	–	0.7	0.2	1.4×10^8 cells/mL	4.8×10^8 cells/mL	6.9×10^8 cells/mL	2.9×10^8 cells/mL	viability of cells in HFB [7]: 30%
COc1c(O)cc2c(c1OC)-c1ccc(SC)c(=O)cc1[C@@H](N(C(C)=O)C(=O)CNC(=O)C(F)(F)F)CC2 [Compound 47, N-[(7S)-3-hydroxy-1,2-dimethoxy-10-methylsulfanyl-9-oxo-5,6,7,9-tetrahydrobenzo[α]heptalen-7-yl]-N-[(trifluoroacetyl)glycyl]acetamide]	–	–	–	–	–	–	–	–	–	–	–	–	–	–	–	–	–	–	–	–	fold lower IC50 than IC50 of (39) [11]: about 8 fold
C=CCOc1cc2c(c(OC)c1OC)-c1ccc(SC)c(=O)cc1[C@@H](N(C(C)=O)C(=O)CNC(=O)C(F)(F)F)CC2 [Compound 48, N-[(7S)-1,2-dimethoxy-10-methylsulfanyl-9-oxo-3-(prop-2-enoxy)-5,6,7,9-tetrahydrobenzo[α]heptalen-7-yl]-N-[(trifluoroacetyl)glycyl]acetamide]	–	–	–	–	–	–	–	–	–	–	–	–	–	–	–	–	–	–	–	–	fold lower IC50 than IC50 of (39) [11]: about 8 fold
